From publication PMC7470027, “Synthesis and structure-activity relationships of novel 5-(hydroxamic acid)methyl oxazolidinone derivatives as 5-lipoxygenase inhibitors” (Journal of Enzyme Inhibition and Medicinal Chemistry, 2020) come the findings set out here.

Type in all cases: cell-based
Data set [1] concerns 5-LO-dependent generation of LTB4 from activated human whole blood. Nature of the data set: Inhibition of 5-LO product LTB4 from activated human whole blood (LPS/FMLP). The conditions noted are these: LPS-primed, FMLP-stimulated human whole blood; 95% confidence interval in brackets; read-out: Human whole blood LTB4 IC50 (CI). Here is the method: All compounds were evaluated for inhibitory activity against the 5-LO-dependent generation of LTB4 from activated human whole blood. With ethical approval from the Health Sciences Centre Ethical Committee of Kuwait University, heparinised fresh human blood samples from apparently healthy individuals of both sexes were obtained from the Kuwait Central Blood Bank. All donors gave informed consent and the work was carried out in accordance with the “Declaration of Helsinki” for experiments involving human subjects. Aliquots of 185 µl of whole blood were dispensed into each well of a 96-well culture plate containing 5 µl of the priming agent, LPS (1 µg/ml final concentration). […] After further incubation for 15 min at 37 °C, 5 µl of FMLP (1 µM final concentration) was added to stimulate LT production. The reaction was stopped 15 min later, and the supernatants were recovered by centrifugation and stored at −40 °C pending analysis of LTB4 content.
(§1) Appropriately diluted supernatants were assayed for the released products – LTs (LTB4 and LTC4), by the enzyme immunoassay (EIA) method using assay kits supplied by R&D Systems (Minneapolis, MN) and following the manufacturer’s instructions.
(§2) All data were analysed using GraphPad Prism software (GraphPad Software, San Diego, CA). […] Differences between experimental groups were first analysed by one-way ANOVA, followed by Bonferroni’s post-hoc test. A p-value of less than 0.05 was taken as statistically significant.

For data set [2], the system named is 5-LO product LTC4 from allergen/IgE-activated bone marrow-derived mouse mast cells (BMMC). Kind of data set: Inhibition of 5-LO product LTC4 from allergen/IgE-activated bone marrow-derived mouse mast cells (BMMC). The conditions noted are these: Mus musculus; anti-DNP IgE/DNP-BSA-activated BMMC; 95% confidence interval in brackets; read-out: Mouse mast cell LTC4 IC50 (CI). As to the method: Bone marrow-derived mast cells (BMMC) were generated from pathogen-free 5 to 7-weeks-old male Balb/c mice according to the method of Davis et al.[28]. Essentially, bone marrow cells were obtained by flushing the femoral bone marrow and the recovered cells cultured in RPMI 1640 medium supplemented with 10% FBS, 100 U/ml penicillin, and 100 µg/ml streptomycin, 25 mM HEPES, 1.0 mM sodium pyruvate, 0.1 mM nonessential amino acids, 0.0035% 2-mercaptoethanol, and 30 ng/ml mouse recombinant IL-3, with culture medium, replaced every 2 days. Cells were used after 4–8 weeks of culture, by which time at least 97% of the cells would have differentiated into mast cells, as routinely obtained in our laboratory.
The generated BMMCs were seeded at 5 × 10^4 cells/well in a 96-well flat-bottom culture plate and passively sensitised overnight with 0.5 µg/ml anti-DNP monoclonal IgE antibody. The cells were then washed twice to remove any unbound antibody and subsequently resuspended in reaction buffer (135 mM NaCl, 5 mM KCl, 1.8 mM CaCl2, 1 mM MgCl2, 5.6 mM glucose, 0.05% BSA and 20 mM HEPES, pH 7.4). They were then pre-incubated with the test compounds (0.001 − 30 μM) or the solvent (0.05% DMSO) for 15 min before being stimulated with the specific antigen, DNP-BSA (10–30 ng/ml). After 30 min incubation at 37 °C, the amount of LTC4 released into the supernatant was determined by ELISA as described below.
as §1, §2

Data set [3] deals with isolated human monocytes. Nature of the data set: In vitro toxicity testing, MTT viability. The conditions noted are these: concentrations up to 50 μM, 3 h or 24 h. Here is the method:
Adherent human monocytes, prepared as described above were cultured with various concentrations of the test compounds or vehicle, or with 0.05% Triton-X as a positive control for 3 h or 24 h. At the end of the culture, cell viability was determined using the standard MTT assay method. Briefly, 15 μL of the MTT solution (5 mg/ml) was added to each well and incubated at 37 °C for 4 h. After removing the supernatant, 200 μL of DMSO was added to dissolve the crystals. Absorbance at 570 nm was then measured in a microplate reader. Viability was expressed as a percentage of the vehicle-treated cells.

The IC50 is the point on the concentration scale where inhibition reaches its midpoint.

As for `CCCCCCC(=O)N(O)C[C@H]1CN(c2ccc(N3CCOCC3)c(F)c2)C(=O)O1` [PH-249, (R)-N-((3-(3-fluoro-4-morpholinophenyl)-2-oxooxazolidin-5-yl)methyl)-N-hydroxyheptanamide], the IC50 in data set [1] was found to be 700 nM; in data set [2] it was 1300 nM. Also, the “Effect on viability of isolated human monocytes (MTT)” value in data set [3] is given as “no significant effect on cell viability”.
